Molecular target: T1, PPAR γ (Mus musculus, UniProt P37238)
T1 construct: expressed in transfected cells; host or cells: 3T3-L1 pre-adipocytes
T1 sequence (P37238 31-505 limits assumed): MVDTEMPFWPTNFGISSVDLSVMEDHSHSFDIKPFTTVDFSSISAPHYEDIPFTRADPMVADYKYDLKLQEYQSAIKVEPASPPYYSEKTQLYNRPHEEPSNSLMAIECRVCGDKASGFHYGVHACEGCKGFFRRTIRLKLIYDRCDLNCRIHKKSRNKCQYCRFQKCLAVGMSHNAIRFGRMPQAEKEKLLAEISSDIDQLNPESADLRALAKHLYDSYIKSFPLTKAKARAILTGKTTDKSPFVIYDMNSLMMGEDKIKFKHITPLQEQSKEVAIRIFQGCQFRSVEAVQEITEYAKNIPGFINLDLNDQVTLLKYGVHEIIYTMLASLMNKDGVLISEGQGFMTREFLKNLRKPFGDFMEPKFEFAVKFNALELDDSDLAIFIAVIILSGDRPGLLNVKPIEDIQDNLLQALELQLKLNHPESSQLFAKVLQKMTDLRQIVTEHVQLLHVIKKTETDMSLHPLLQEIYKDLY
Experiment: PPAR γ reporter activity assay in 3T3-L1 preadipocytes
Assay type: cell-based
Settings: 6 hrs, Ros 1 μM, ABA 10 μM
Procedure: For 3T3-L1 preadipocytes cells were treated for 6-h with vehicle (DMSO) or Ros (1 μM) with ABA (10 μM), the cAMP-inhibitor 2′5′ dideoxyadenosine (dideoxy, 10 μM), or 14-22 myristolated PKA inhibitor fragment (PKAi, 30 μM). […] Luciferase activity was normalized to pRL activity in the cell extracts and relative luciferase activity was calculated a ratio of the activity in the treatment wells to control wells. Data are represented as mean±standard error.
A pCMX.PPAR γ expression plasmid and a pTKPPRE3x luciferase reporter plasmid driven by the PPRE-containing Acyl-CoA oxidase promoter (kindly provided by Dr. R M. Evans, The Salk Institute, San Diego, Calif.) were purified using Qiagen's Maxi kit (Valencia, Calif.). […] Cells were co-transfected in the […] with 1.5 μg plasmid DNA and 25 ng of pRL reporter control using F-2 transfection reagents (Targeting Systems, Santee, Calif.) according to the manufacturer's protocol. […] Cells were then treated in replicates of 8 with vehicle (DMSO), rosiglitazone (1 or 10 μM; Cayman Chemicals, Arm Arbor, Mich.), or ABA (10 μM; Sigma) with and without 2′5′ dideoxyadenosine (10 μM; Sigma) and 14-22 myristolated PKA inhibitor fragment (PKAi, 30 μM; Sigma). […] Luciferase activity, normalized to pRL activity in the cell extracts was determined by using the Dual Luciferase II reporter assay system (Promega, Madison, Wis.) using a Modulus 96-well luminometer (Turner Biosystems, Sunnyvale, Calif.). All values were normalized to control wells to calculate relative luciferase activity.

CC1=CC(=O)CC(C)(C)C1(O)/C=C/C(C)=C\C(=O)O (racemic) [ABA, abscisic acid]
PPAR γ activity: increased
